According to patent publication US20250144168A1, “LANTHIPEPTIDES AND METHODS OF USE” (priority 2022, published 2025):
Square brackets hold non-standard residues; d marks the D form. Ends that are not written are not given here. pT = C[C@@H](OP(=O)(O)O)[C@H](N)C(=O)O

Columns and labels:
M. luteus = assay: Zone of inhibition of the isolated peptides (spot-on-lawn); format: cell-based; conditions: lantibiotic-sensitive target M. luteus
Procedure: Pure and homogenized SALI-10 colonies were selected to inoculate 10 ml of TSB supplemented with 2% yeast extract. The fermentation was carried out overnight at 37° C. with 5% CO2 for 18 h. The produced culture was used to inoculate 20 Petri dishes (100 mm), each containing 20 mL of TSA supplemented with 2% yeast extract and 0.2% CaCO3 and incubated as mentioned above (step 1). The agar cultures were then cut into small pieces and put into 250 mL centrifugation bottles. The bottles were incubated at −80° C. for 18 h and thawed immediately in a 70° C. water bath to produce liquid material. The liquid material was then collected by centrifugation, and the resultant supernatant was extracted with one volume of chloroform. The white precipitate from chloroform extraction was dried and resuspended in 2 ml of 35% acetonitrile in water (v/v). Centrifugation was performed to remove insoluble material to produce a clear peptide extract (we call it material A). The process was repeated with induction procedure by adding 50 μl of material A to 50 ml of TSB supplemented with yeast extract and inoculating this media with SALI-10 strain by repeating step 1 and generating 300 induced agar cultures instead of 20. The induced and chloroform extracted peptide was dried as in step 1 and resuspended in 20 ml of 35% ACN in water (v/v) supplemented with 0.1% TFA. The peptides preparation was processed via solid-phase extraction using C18 Sep-Pak® column (Waters, USA) prewashed with methanol and water. After loading the peptides sample, the column was washed with 10 mL of increasing methanol concentrations (10%, 30%, 50%, 70%). Active peptides were eluted with 95% methanol supplemented with 0.1% TFA. The peptides were finally purified using HPLC and C18-Reversed Phase chromatography as mentioned previously. Eluted fractions (1 ml per minute) were tested for antimicrobial activity against the sensitive strain M. luteus ATCC10240 using the spot-on-lawn method.

[1] = test system: saliva-derived multispecies biofilms; assay: Preformed saliva-derived multispecies biofilm, 16S rRNA gene sequencing; format: cell-based, human saliva bacteria
Source text: 13. 16S rRNA Gene Sequencing […] 14. […] The UNOISE pipeline, available through […]11.0.667 and […]2.10.4, was used for sequence analysis. […] 5, a -[…] […] 1.0.

[2] = test system: saliva-derived multispecies biofilms; assay: Preformed saliva-derived multispecies biofilm, Live/Dead confocal microscopy; format: cell-based, human saliva bacteria; conditions: salivaricin 10 at 25 and 50 μg·ml^−1; nisin A at 50 μg·ml^−1; 20 min
Procedure: Biofilms were formed ex-vivo using cell-free saliva as a medium and total salivary cell as inoculum (from healthy subjects). Twenty-four hours pre-formed multispecies biofilms grown anaerobically were treated with either nisin A (50 μg·ml^−1) or two concentrations of salivaricin 10 (25 and 50 μg·ml^−1) for a time exposure of 20 min. […] Salivaricin 10 penetrated saliva-derived multispecies biofilms and effectively killed the bacterial cells within (labeled with PI, lighter gray). No such effect was noticed with untreated (PBS) biofilms controls where the viable cells labeled mainly with Syto9, black. the ratio of live to dead cells decreased by a factor of 6 times compared to PBS treated conditions. […] This dose-dependent reduction in the oral biofilm thickness was reported previously for nisin A [27].
12. Antimicrobial Activity Against Preformed Biofilms (Saliva-Derived De Novo Model)
Saliva-derived biofilms were established in 24 well glass bottom sensoplates (Greiner Bio-One, Monroe, NC, USA) as mentioned previously. […] The mean Intensity of pixels for viable signals (Syto-9; live) and (PI; dead) were measured within biofilm areas of each image with the slices containing the highest respective signal intensity using custom Fiji (ImageJ). […] All quantifications and statistical calculations are based on 10-15 images and 5-10 stacks for each repeat (three repeats). […]

[3] = test system: isolated human neutrophils; assay: Neutrophil chemotaxis assay (Zigmond chamber); format: cell-based
Procedure: A suspension of 1×10^6 human PMNs in 100 μL HBSS containing 1% gelatin (Sigma-Aldrich) was placed on a 5% bovine serum albumin-coated 22×40 mm glass coverslip and incubated for 10 minutes at 37° C. Coverslips were then inverted onto a Zigmond chamber. Hundred microliters of HBSS and 100 μL HBSS containing N-formyl-methionyl-leucyl-phenylalanine (fMLP) 10^-6M or different concentrations of salivaricin 10 were added to the left and right chambers, respectively. PMN migration across the chamber was recorded with time-lapse of video microscopy at 20 second intervals for a period of 10 minutes using a Zeiss Motorized AxioVert (ZEISS). Captured images were analyzed using cell-tracking software (Retrac, v2.1.0.).

[4] = test system: human whole blood neutrophils and monocytes; assay: Whole blood phagocytosis (pHrodo) and CD marker flow cytometry; format: cell-based; conditions: N-terminal analogues, unlike full-length salivaricin 10
Source text: Neutrophils and monocytes display different activation states characterized by expression levels of cell surface CD marker in the oral cavity depending on the bacteria that they are interacting with. In health, neutrophils in the oral cavity are in a parainflammatory state, and with dysbiosis neutrophil phenotypes change towards a proinflammatory state. To determine if salivaricin 10 can prime neutrophils to augment pathogen elimination through phagocytosis, the surface expression of specific activation CD markers was assessed on human and murine neutrophils stimulated either with pHrodo (pH-sensitive, heat killed E. coli) alone or with salivaricin 10 and pHrodo. […]
SONY SA3800 flow cytometer was used to acquire the data. […] To validate the gating strategy and antibody labeling FMO (fluorescence minus one) controls were used. […]
Data were analyzed by FlowJo software (v10.8; Tree Star). The mean fluorescence intensities (MFIs) for each CD marker were measured. Significant differences (P<0.05) were determined using GraphPad Prism 9 (GraphPad Software, Inc.). for the in-vitro human blood and mouse bone marrow assay paired Student's t-test (n=3) was used for the statistical analysis. […]

[5] = test system: CXCL10 and TGM2 gene expression in M1 macrophages; assay: Macrophage gene expression assay (CXCL10, TGM2); format: cell-based; conditions: 40 μg/mL

GWFTAVQLTLAGRCGRWFTGSYECTTNNVKCG (cysteine pairing not given here; also: lanthionine modifications; listed as Streptococcus salivarius) [SrnA2, major lanthipeptide of salivaricin 10, tyrosine at position 22]
antimicrobial activity (zone of inhibition) of the isolated peptide (M. luteus): more extensive zone of inhibition

GWSTAVRLTVQGRCGWWFTHSYECTSPNVRCG (cysteine pairing not given here; also: lanthionine modifications; listed as Streptococcus salivarius) [SrnA4]
antimicrobial activity (zone of inhibition) of the isolated peptide (M. luteus): Reduced antimicrobial activity

nisin A
S. gordonii, S. parasanguinis levels in the biofilm [1]: strongly inhibited | commensal species of the genera Veillonella, Streptococcus and Haemophilus in the biofilm ([1]; salivaricin 10 at 25 μg and 50 μg): disrupted the indigenous oral biofilm, including beneficial commensals | damage to biofilm architecture (confocal images) [2]: significant and critical damage to the biofilm architecture

GWFTAVQLTLAGRCGRWFTGSFECTTNNVKCG (cysteine pairing not given here; also: lanthionine modifications; listed as Streptococcus salivarius) [SrnA1, lanthipeptide of salivaricin 10, phenylalanine at position 22]
antimicrobial activity (zone of inhibition) of the isolated peptide (M. luteus): reduced

NH2-GWFTAVQL-COOH (H-GWF[pT]AVQL-OH; SMILES CC(C)C[C@H](NC(=O)[C@H](CCC(N)=O)NC(=O)[C@@H](NC(=O)[C@H](C)NC(=O)[C@@H](NC(=O)[C@H](Cc1ccccc1)NC(=O)[C@H](Cc1c[nH]c2ccccc12)NC(=O)CN)[C@@H](C)OP(=O)(O)O)C(C)C)C(=O)O; listed as Streptococcus salivarius) [p(1-8) Sali10, chemically synthesized eight N-terminal unbridged residues of SrnA1 and SrnA2 with pThr4]
neutrophil chemotaxis of the N-terminal tail analogues ([3]; 40 μg/mL, compared with full-length salivaricin 10): very similar activity to the full-length salivaricin 10 | effects on the neutrophils' CD marker expression [4]: Neither p (1-8) Sali10 (SEQ ID NO: 16) nor np (1-8) Sali10 showed effects | gene expression of CXCL10 (M1 macrophage biomarker) [5]: downregulated | gene expression of TGM2 (M2 macrophage biomarker) compared to M1 control cells [5]: upregulated

CSCC[C@H](NC=O)C(=O)N[C@@H](CC(C)C)C(=O)N[C@@H](Cc1ccccc1)C(=O)O [fMLP, N-formyl-methionyl-leucyl-phenylalanine, reference compound]
neutrophil migration speed ([3]; control peptide): ~11 μm/minute
